“Also recorded” adds a separate entry of the source.
Experiments:
AR42J cells = conditions: cited from earlier work
[1] = test system: reactive oxygen species in NCI-H727 cells; test: Reactive oxygen species in NCI-H727 cells; type: cell-based, human; conditions: CI-988 (10 µM, Table II), Tiron unpublished (T. Moody)
[2] = test system: cytosolic Ca2+ in NCI-H727 cells; test: Cytosolic Ca2+ in Fura-2AM loaded NCI-H727 cells; type: cell-based, human; conditions: for Effect on basal cytosolic Ca2+: CI-988 1 µM (Fig. 3D), L-364,718 concentration not printed (Fig. 3C)
NCI-H727 cells [3] = test: MTT proliferation assay, NCI-H727 cells
NCI-H727 cells [4] = test: Clonogenic assay, clonal growth of NCI-H727 cells; conditions: for Effect on CCK-8-stimulated increase in colony number: CI-988 3 µM or gefitinib 1 µM, CCK-8 10 nM
SCLC = conditions: basal or CCK-8-stimulated growth; ref Moody and Jensen, 2001; cited from earlier work
[5] = test system: ERK tyrosine phosphorylation in NCI-H727 cells; test: ERK tyrosine phosphorylation; type: cell-based, human; conditions: for Inhibition of CCK-8-induced ERK tyrosine phosphorylation: Fig. 2C; for Inhibition of CCK-8-induced ERK phosphorylation, in words / Inhibition of CCK-8-induced ERK phosphorylation (T. Moody, unpublished): NCI-H727 cells; for Inhibition of CCK-8-induced ERK phosphorylation, in words: concentration not given at this place
[6] = test system: EGFR tyrosine phosphorylation in NCI-H727 cells; test: EGFR tyrosine phosphorylation; type: cell-based, human; conditions: for Significance of inhibition of CCK-8-induced EGFR tyrosine phosphorylation: Fig. 2B; for Inhibition of CCK-8-induced EGFR tyrosine phosphorylation, in words: NCI-H727 cells, concentration not given at this place
[7] = test system: TGF α secretion from NCI-H727 cells; test: TGF α secretion from NCI-H727 cells; type: cell-based, human; conditions: preliminary data, T. Moody unpublished
CCK1R = conditions: ref Jensen et al., 1989; cited from earlier work
SCLC cells = conditions: ref Staley et al., 1990; cited from earlier work
CCK2R = conditions: ref Innes and Snyder, 1980; cited from earlier work
NCI-H510 cells = conditions: 0.1 µM; ref Sethi et al., 1993; cited from earlier work
GLC19 cells = conditions: literature discussion, ref Sethi et al., 1993; cited from earlier work
[8] = cited from earlier work
[9] = 10 µM as printed in legend (Fig. 4C)
[10] = 5 mM NAC or Tiron (Fig. 4A, B), p < 0.05 relative to CCK-8

COc1cc2ncnc(Nc3cccc(Cl)c3)c2cc1OC [AG1478]
Effect on CCK-8-induced EGFR and ERK tyrosine phosphorylation in AR42J cells (AR42J cells; ref Piiper et al., 2003): inhibited

C[C@](Cc1c[nH]c2ccccc12)(NC(=O)OC1[C@H]2C[C@@H]3C[C@@H](C[C@H]1C3)C2)C(=O)NC[C@H](NC(=O)CCC(=O)O)c1ccccc1 (stereo partly drawn) [CI-988]
Inhibition of CCK-8-induced ROS increase, in words [1]: blocked significantly; also recorded: inhibited
Effect on basal cytosolic Ca2+ [2]: no effect
Potentiation of growth inhibitory effects of gefitinib (NCI-H727 cells [3]; NCI-H727 cells): potentiated the growth inhibitory effects of gefitinib
Colony number + 10 nM CCK-8 (NCI-H727 cells [4]; CI-988 3 uM + 10 nM CCK-8 (CCK-8 alone 74 ± 9), mean ± S.D. of 3 determinations): 44 ± 5
Effect on CCK-8-stimulated increase in colony number (NCI-H727 cells [4]): reversed
Colony number (NCI-H727 cells [4]; CI-988 3 uM, no CCK-8, control 42± 6, mean ± S.D. of 3 determinations, 2 weeks): 21 ± 3
Reduction of colony number (NCI-H727 cells [4]; CI-988 (3 µM), no CCK-8): 50%
Effect on NCI-H727 proliferation, in words (NCI-H727 cells [4]; NCI-H727 cells): inhibit proliferation
Effect on basal growth or growth stimulated by CCK-8, in words (NCI-H727 cells [4]; NCI-H727 cells): inhibited the basal growth of NCI-H727 cells or that stimulated by CCK-8
Effect on SCLC growth (SCLC): inhibit
Inhibition of CCK-8-induced ERK tyrosine phosphorylation ([5]; CI-988 1 µM): not 1 µM
Inhibition of CCK-8-induced ERK tyrosine phosphorylation ([5]; CI-988 10 µM, p < 0.05 relative to CCK-8): significantly inhibited
Inhibition of CCK-8-induced ERK phosphorylation, in words [5]: significantly inhibited
Inhibition of CCK-8-induced ERK phosphorylation (T. Moody, unpublished) [5]: blocked
Effect on total ERK ([5]; Western blot, Fig. 2A): no effect
Antagonism of gastrin-17-induced ERK tyrosine phosphorylation ([5]; data not shown): antagonized
Inhibition of CCK-8-induced EGFR tyrosine phosphorylation ([6]; CI-988 1 µM vs 0.1 µM CCK-8 (Fig. 2A)): weakly
Significance of inhibition of CCK-8-induced EGFR tyrosine phosphorylation ([6]; CI-988 1 µM): not 1 µM
Inhibition of CCK-8-induced EGFR tyrosine phosphorylation ([6]; CI-988 10 µM vs 0.1 µM CCK-8 (Fig. 2A)): strongly
Significance of inhibition of CCK-8-induced EGFR tyrosine phosphorylation ([6]; CI-988 10 µM, p < 0.01 relative to CCK-8): significantly inhibited
Inhibition of CCK-8-induced EGFR tyrosine phosphorylation, in words [6]: blocked; also recorded: significantly inhibited
Effect on total EGFR ([6]; Western blot, Fig. 2A): no effect
Antagonism of gastrin-17-induced EGFR tyrosine phosphorylation ([6]; data not shown): antagonized

CNC(=O)[C@H](Cc1c[nH]c2ccccc12)NC(=O)[C@@H](CC(=O)NO)CC(C)C [GM6001]
Inhibition of CCK-8-induced ERK phosphorylation, in words [5]: significantly inhibited
Effect on basal EGFR tyrosine phosphorylation [6, 9]: no effect
Inhibition of CCK-8-induced EGFR tyrosine phosphorylation ([6]; GM6001 1 µM as printed in text (Fig. 4C, D), p < 0.01 relative to CCK-8): significantly inhibited
Inhibition of CCK-8-induced EGFR transactivation ([6]; GM6001 10 µM as printed in legend of Fig. 4C): inhibited the increase in EGFR transactivation
Inhibition of CCK-8-induced EGFR tyrosine phosphorylation, in words [6]: blocked; also recorded: significantly inhibited
Effect on CCK-8-stimulated secretion of TGF α [7]: inhibits

COc1cc2ncnc(Nc3ccc(F)c(Cl)c3)c2cc1OCCCN1CCOCC1 [Gefitinib]
Increase in cytotoxicity of gefitinib in presence of CI-988 (NCI-H727 cells [3]; gefitinib with CI-988): approximately an order of magnitude
Effect on CCK-8-stimulated increase in colony number (NCI-H727 cells [4]): reversed
Effect on basal growth or growth stimulated by CCK-8, in words (NCI-H727 cells [4]; NCI-H727 cells): inhibited the basal growth of NCI-H727 cells or that stimulated by CCK-8
Reduction of colony number (NCI-H727 cells [4]; gefitinib (1 µM), no CCK-8): 37%

CN1C(=O)[C@@H](NC(=O)c2cc3ccccc3[nH]2)N=C(c2ccccc2)c2ccccc21 [L-364,718]
Effect on basal cytosolic Ca2+ [2]: no effect
CCK1R antagonism, in words (CCK1R): antagonized
Antagonism of effects of CCK-8 on SCLC cells (SCLC cells): not L-364,718

Cc1cccc(NC(=O)N[C@@H]2N=C(c3ccccc3)c3ccccc3N(C)C2=O)c1 [L-365,260]
Antagonism of effects of CCK-8 on SCLC cells (SCLC cells): blocked
CCK2R antagonism, in words (CCK2R): antagonized
Effect on SCLC growth (SCLC): inhibit

CC(=O)N[C@@H](CS)C(=O)O [NAC, N-acetylcysteine]
Effect on basal EGFR tyrosine phosphorylation ([6]; 5 mM (Fig. 4A)): no effect
Inhibition of CCK-8-induced EGFR transactivation [6, 10]: inhibited significantly; also recorded: inhibited the increase in EGFR transactivation

COc1cccc(-c2cc(=O)c3ccccc3o2)c1N [PD98059]
Inhibition of CCK-8-induced ERK phosphorylation (T. Moody, unpublished) [5]: blocked

CC(C)(C)n1nc(-c2ccc(Cl)cc2)c2c(N)ncnc21 [PP2]
Inhibition of CCK-8-induced ERK phosphorylation, in words [5]: significantly inhibited
Inhibition of CCK-8-induced EGFR tyrosine phosphorylation ([6]; 10 µM PP2 (Fig. 4C, D), p < 0.01 relative to CCK-8): significantly inhibited; also recorded: inhibited the increase in EGFR transactivation
Effect on basal EGFR tyrosine phosphorylation [6, 9]: no effect
Inhibition of CCK-8-induced EGFR tyrosine phosphorylation, in words [6]: blocked; also recorded: significantly inhibited
Effect on CCK-8-stimulated increase in P-Src and P-ERK in AR42J cells (AR42J cells; ref Ferrand et al., 2006): inhibited

O=S(=O)(O)c1cc(O)c(O)c(S(=O)(=O)O)c1 [Tiron]
Inhibition of CCK-8-induced ROS increase, in words [1]: inhibited
Effect on basal EGFR tyrosine phosphorylation ([6]; 5 mM (Fig. 4A)): no effect
Inhibition of CCK-8-induced EGFR transactivation [6, 10]: inhibited significantly; also recorded: inhibited the increase in EGFR transactivation
Inhibition of CCK-8-induced EGFR tyrosine phosphorylation, in words [6]: inhibited
Inhibition of CCK-8-induced EGFR tyrosine phosphorylation, in words ([6]; listed as tiron): blocked

EGF: epidermal growth factor, EGFR ligand (NSDSECPLSHDGYCLHDGVCMYIEALDKYACNCVVGYIGERCQYRDLKWWELR; UniProt P01133 971-1023, looked up)
EGFR tyrosine phosphorylation, in words ([6]; 0.1 µM (100 nM) ligand, 2 min, NCI-H727): strongly

gastrin
Effect on cytosolic Ca2+, in words ([2]; 10 nM, Fura-2AM, 37°C, representative of 3 others (Fig. 3A, B)): increased the cytosolic Ca^2+
Effect on cytosolic Ca2+ in NCI-H510 cells (NCI-H510 cells): increased cytosolic Ca^2+
Effect on cytosolic Ca2+ in GLC19 cells (GLC19 cells): no effect
Effect on heparin binding (HB) EGF ([8]; PKC-dependent, ref Sinclair et al., 2004): increases
Effect on COX-2 and prostaglandin E2 expression ([8]; colon cancer cells, ref Colucci et al., 2005): increases COX-2 and prostaglandin E2 expression
Effect on MMP9 expression ([8]; gastric epithelial cells, ref Wroblewski et al., 2002): increases
Effect on ELK-1 and COX-2 expression ([8]; intestinal epithelial cells, ref Guo et al., 2002): increased ELK-1 and COX-2 expression
Effect on c-fos expression ([8]; ref Stepan et al., 1999): increases c-fos expression
Effect on expression of HB-EGF and amphiregulin ([8]; ref Tsutsui et al., 1997): increases

Source: publication PMC4479967 (Journal of molecular neuroscience : MN, 2015)
